Experiments:
[1] = system: Carrageenin induced thermal hyperalgesia in the rat; assay: Carrageenin induced hyperalgesia, rat paw pressure test; format: in vivo; settings: po, 30 mg/kg p.o., 2 h post dose, MPE = maximum possible effect, baseline value prior to carrageenin
Procedure: (§1) In another test, compounds were evaluated for their ability to reduce the hyperalgesia effects of carrageenin in the following assay: nociceptive pressure thresholds were measured in the rat paw pressure test using an analgesimeter (Randall L. O. and Selitto J. J., A method for measurement of analgesic activity on inflamed tissue. Arch. Int. Pharmacodyn 4: 409-419, 1957). Male Sprague-Dawley rats (70-90 g) were trained on this apparatus before the test day. Pressure was gradually applied to the hind paw of each rat Nociceptive thresholds were determined as the pressure (g) required to elicit paw withdrawal. A cutoff point of 250 g was used to prevent any tissue damage to the paw. On the test day, 2 to 3 baseline measurements were taken before animals were administered 100 μl of 2% aqueous carrageenin by intraplantar injection into the right hind paw. […]

[2] = system: Carrageenin induced hyperalgesia in the rat; assay: as above; format: in vivo; settings: po, 30 mg/kg p.o., 1 h post dose, MPE = maximum possible effect, baseline value prior to carrageenin
Procedure: as §1

SMILES | inhibition in vivo at 30 mg/kg [1] | inhibition in vivo at 30 mg/kg [2]
CCC(=O)N(CCNCc1ccccc1)c1cccc2ccccc12 [Example 12, N-Propionyl, N-(2-(N-benzyl)-aminoethyl)-1-aminonaphthalene] | 3.13% | 29.7%
CCC(=O)N(CCN(CC)CC)c1cccc2c1-c1ccccc1C2=O [Example 2, N-Propionyl, N-(2-Diethylaminoethyl)-4-amino-9-fluorenone] | 6.4% | 1.1%
CCC(=O)N(CCN1CCOCC1)c1ccc(Cl)c2ccccc12 [Example 4] | 30.7% | 44.8%
CCC(=O)N(CCN(CC)CC)c1ccc(Cl)c2ccccc12 [Example 1, N-Propionyl, N-(2-Diethylaminoethyl)-1-amino-4-chloronaphthalene] | 22.2% | 51.5%
C=CC(=O)N(CCN(CC)CC)c1ccc(Cl)c2ccccc12 [Example 14, N-Acryloyl, N-(2-Diethylaminoethyl)-1-amino-4-chloronaphthalene] | 0.9% | 15.1%
CCC(=O)N(c1ccc(Cl)c2ccccc12)C(C)CN(CC)CC (centres unmarked) [Example 5, N-Propionyl, N-(2-(3-diethylamino-propyl))-1-amino-4-chloronaphthalene] | 27.5% | 23.3%
CCC(=O)N(CCN(CC)CC)c1ccc(Br)c2ccccc12 [Example 3, N-Propionyl, N-(2-Diethylaminoethyl)-1-amino-4-bromonaphthalene] | 7.7% | -2.6%
